Measurements taken from publication PMC12610721, “The Action of Cannabidiol on Doxycycline Cytotoxicity in Human Cells—In Vitro Study” (Molecules, 2025).

Assays:
HEK-293 cells [1] = test: cellular morphology (May–Grünwald–Giemsa staining); assay type: cell-based, human; details: HEK-293, 72 h
Method: (§1) This method was used to illustrate changes in cell morphology under the influence of the tested compounds. The staining was performed on Lab-Tek plates (Nunc, NY, USA). Cells at a density of 1 × 10^5 cells/mL were used. After 72 h of incubation with or without the tested drugs (control), the culture medium was removed, and the cells were stained with 1 mL of May–Grünwald dye for 3 min at room temperature. Then, 1 mL of deionized water was added to each plate. After another 3 min of incubation at room temperature, the liquid was removed. All plates were rinsed with deionized water, and the cells were subsequently stained with Giemsa dye (dilution 1:20) for 30 min at room temperature. After staining, the dye was removed, the wells were rinsed with 1 mL of deionized water, and the plates were allowed to dry. Images were captured using a light microscope (Zeiss, Oberkochen, Germany).

SH-SY5Y cells [2] = test: cellular morphology (May–Grünwald–Giemsa staining); assay type: cell-based, human; details: 72 h
Method: as §1

HepG2 cells [3] = test: cellular morphology (May–Grünwald–Giemsa staining); assay type: cell-based, human; details: HepG2, 72 h
Method: as §1

various human cell lines = details: cited from earlier work
HEK-293 cells [4] = test: cell membrane integrity (LDH leakage assay)
Method: (§2) This innovative study evaluated the effects of cannabidiol (Cannabis sativa L.) on doxycycline-induced toxicity using three cell cultures: neural—SH-SY5Y, liver—HepG2, and kidney—HEK-293. […] A series of cytotoxicity assays included assessments of mitochondrial activity, lysosomal activity, cell membrane integrity, DNA synthesis, and cell proliferation. Based on the obtained results, IC50 values for doxycycline, both in monotherapy and in combination with CBD, were calculated, along with evaluations of ROS, death of cells, and morphology. The interaction between the drug and CBD was further analyzed by the combination index (CI).
(§3) Cell membrane integrity was assessed by measuring lactate dehydrogenase (LDH) release, using a commercially available Cytotoxicity Detection Kit (LDH) (Roche Diagnostics, Warsaw, Poland). After incubation, 100 µL of culture medium (cell-free) from each well was transferred to the corresponding wells of an optically clear 96-well flat-bottom microplate, and 100 µL of reaction mixture was added to each well. The plate was then incubated for 30 min at room temperature in the dark. To stop the reaction, 50 µL of 1 M HCl was added to each well. Absorbance was measured at 492 nm using the Synergy 2 Multi-Mode Microplate Reader (BioTek® Instruments Inc., Winooski, VT, USA), with a blank as reference.
(§4) To determine the types of interaction that occur when cells are exposed to combinations of DOX and CBD, the method established by Chou and Talalay was used in this study. The dose–effect relationships of the individual and combined test compounds were modeled biometrically using the Median-Effect Equation based on the Mass Action Law.fa/fu = (D/Dm)^m
(§5) In this isobolographic analysis, the combination index (CI) is a quantitative parameter used to evaluate the type and strength of interactions between multiple compounds. For all combinations, CI values were calculated across a range of affected fractions (Fa) from 0.05 to 0.95 (corresponding to 5–95% toxicity). CI values of 0.9–1.1, <0.9, and >1.1 indicate additive, synergistic, and antagonistic effects, respectively.
(§6) The study was conducted in three independent experiments (n = 3). […] Cytotoxicity data were analyzed using one-way analysis of variance (ANOVA), followed by Dunnett’s post hoc test to assess significance relative to the negative control. The half-maximal inhibitory concentration (IC50), representing the drug or drug–CBD mixture concentration required to inhibit cell viability by 50%, was calculated using GraphPad Prism 5.0. Statistical comparisons between IC50 values were performed using ANOVA followed by Tukey’s post hoc test. Differences were considered statistically significant at p ≤ 0.05.

SH-SY5Y cells [5] = test: cell membrane integrity (LDH leakage assay); details: 72 h
Method: as §2, §3, §4, §5, §6

HepG2 cells [6] = test: cell membrane integrity (LDH leakage assay)
Method: as §2, §3, §4, §5, §6

For C[C@H]1c2cccc(O)c2C(=O)C2=C(O)[C@]3(O)C(=O)C(C(N)=O)=C(O)[C@@H](N(C)C)[C@@H]3[C@@H](O)[C@@H]21 [DOX, doxycycline hyclate], the morphological changes (HEK-293 cells [1]) was “cell aggregation followed by detachment from the adhesive surface”, the morphological changes (SH-SY5Y cells [2]) was “cell aggregation followed by detachment from the adhesive surface” and the morphological changes (HepG2 cells [3]) was “cell aggregation followed by detachment from the adhesive surface”. The “effect of extended incubation on human cell lines” value (various human cell lines; 96 h, 0.1 to 10 µg/mL, increased lactate production and decreased oxygen consumption) was “cytotoxic effects”, the “concentration observed to inhibit proliferation and induce apoptotic cell death” value (various human cell lines; tested human cell cultures) was 1000 ng/mL and the “doxycycline concentration that caused degradation of the cell membrane” value (HEK-293 cells [4]; HEK-293, LDH, 72 h) was 6.25 µg/mL. For the same molecule, the IC50 (HEK-293 cells [4]; Homo sapiens, HEK293, 72 h) was 30.4 ± 2.7 µg/mL, the IC50 (SH-SY5Y cells [5]; Homo sapiens) was 149 ± 6.5 µg/mL and the “doxycycline concentration that induced cell membrane breakdown” value (SH-SY5Y cells [5]; LDH) was 12.5 µg/mL. For the same molecule, the “doxycycline concentration that disrupted membrane integrity” value (HepG2 cells [6]; HepG2, LDH, 72 h) was 50 µg/mL and the IC50 (HepG2 cells [6]; Homo sapiens, HepG2, 72 h) was greater than 200 µg/mL.
